Data as given in ChEMBL document CHEMBL4219057, “Recent Advances of Colony-Stimulating Factor-1 Receptor (CSF-1R) Kinase and Its Inhibitors” (J Med Chem, 2018).
Converted amounts (≈) assume the structure as drawn. Values belong to the molecule of their own block, whether it stands above or below them.

Tests used:
[1] = biological target: Mast/stem cell growth factor receptor Kit (Homo sapiens, UniProt P10721); test: Inhibition of KIT (unknown origin) using biotinylated peptide substrate
Mus musculus [2] = test: Anti-inflammatory activity in unilateral ureter obstruction-induced C57BL/6 mouse renal inflammation model assessed as reduction in F4/80+ macrophage accumulation in kidney at 40 mg/kg, po via gavage administered at 12 hrs time interval for 7 days starting from end of UUO surgery by […] staining based immunohistochemical analysis relative to control; format: functional; details: C57BL/6, po
Mus musculus [3] = test: Inhibition of LPS-induced TNFalpha level in serum of Swiss Webster mouse at 40 mg/kg, po via gavage pretreated for 4.15 hrs followed by LPS stimulation measured after 1.5 hrs by ELISA relative to control; format: functional
[4] = Aqueous solubility of the compound by turbidity-based assay; format: physicochemical; details: buffer
[5] = biological target: Macrophage colony-stimulating factor 1 receptor (Homo sapiens, UniProt P07333); test: Inhibition of CSF1R (unknown origin) using biotinylated peptide substrate
Macrophage colony-stimulating factor 1 receptor, sequence (P07333 whole entry): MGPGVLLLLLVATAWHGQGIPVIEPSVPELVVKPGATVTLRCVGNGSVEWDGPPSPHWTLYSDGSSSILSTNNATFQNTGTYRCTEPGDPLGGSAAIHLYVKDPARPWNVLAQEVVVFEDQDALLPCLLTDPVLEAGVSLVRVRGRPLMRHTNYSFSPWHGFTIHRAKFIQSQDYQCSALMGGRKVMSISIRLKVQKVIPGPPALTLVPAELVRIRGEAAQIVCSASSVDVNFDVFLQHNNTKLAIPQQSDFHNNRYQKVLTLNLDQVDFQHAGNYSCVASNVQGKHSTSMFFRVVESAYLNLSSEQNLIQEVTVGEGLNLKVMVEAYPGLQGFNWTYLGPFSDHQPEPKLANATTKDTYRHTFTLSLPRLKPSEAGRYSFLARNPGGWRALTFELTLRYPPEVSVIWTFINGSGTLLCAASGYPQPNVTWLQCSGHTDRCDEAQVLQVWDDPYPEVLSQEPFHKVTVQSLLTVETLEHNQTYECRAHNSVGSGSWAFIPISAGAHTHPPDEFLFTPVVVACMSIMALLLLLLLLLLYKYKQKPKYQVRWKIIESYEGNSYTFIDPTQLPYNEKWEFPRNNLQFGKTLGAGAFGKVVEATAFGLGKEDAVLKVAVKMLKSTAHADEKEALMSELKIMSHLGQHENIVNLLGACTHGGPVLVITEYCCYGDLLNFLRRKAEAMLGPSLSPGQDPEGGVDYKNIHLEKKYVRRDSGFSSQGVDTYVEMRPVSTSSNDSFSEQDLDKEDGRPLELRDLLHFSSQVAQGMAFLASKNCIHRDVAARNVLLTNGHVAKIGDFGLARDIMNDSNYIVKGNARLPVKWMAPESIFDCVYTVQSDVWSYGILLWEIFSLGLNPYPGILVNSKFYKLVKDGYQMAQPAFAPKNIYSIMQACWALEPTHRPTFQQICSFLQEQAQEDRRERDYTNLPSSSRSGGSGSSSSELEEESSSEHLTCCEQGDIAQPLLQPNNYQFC

Mus musculus [6] = test: Inhibition of LPS-induced IL-6 level in serum of Swiss Webster mouse at 40 mg/kg, po via gavage pretreated for 4.15 hrs followed by LPS stimulation measured after 1.5 hrs by ELISA relative to control; format: functional
NFS-60 = test: Antiproliferative activity against mouse M-NFS-60 cells harboring CSF1; format: functional, cell-based
[7] = Protein binding in human plasma at 10 uM after 4 hrs by equilibrium dialysis method; format: ADME, cell-free; details: read-out: PPB (converted)
[8] = Tmax in cHL patient at 10 mg administered as single dose; format: ADME, organism-based; details: human, in vivo
[9] = Drug uptake in tumor of recurrent GB patient at 1000 mg, po daily after 7 days; format: ADME, organism-based, Neoplasm; details: human, read-out: Drug uptake

Mast/stem cell growth factor receptor Kit, sequence (P10721 whole entry): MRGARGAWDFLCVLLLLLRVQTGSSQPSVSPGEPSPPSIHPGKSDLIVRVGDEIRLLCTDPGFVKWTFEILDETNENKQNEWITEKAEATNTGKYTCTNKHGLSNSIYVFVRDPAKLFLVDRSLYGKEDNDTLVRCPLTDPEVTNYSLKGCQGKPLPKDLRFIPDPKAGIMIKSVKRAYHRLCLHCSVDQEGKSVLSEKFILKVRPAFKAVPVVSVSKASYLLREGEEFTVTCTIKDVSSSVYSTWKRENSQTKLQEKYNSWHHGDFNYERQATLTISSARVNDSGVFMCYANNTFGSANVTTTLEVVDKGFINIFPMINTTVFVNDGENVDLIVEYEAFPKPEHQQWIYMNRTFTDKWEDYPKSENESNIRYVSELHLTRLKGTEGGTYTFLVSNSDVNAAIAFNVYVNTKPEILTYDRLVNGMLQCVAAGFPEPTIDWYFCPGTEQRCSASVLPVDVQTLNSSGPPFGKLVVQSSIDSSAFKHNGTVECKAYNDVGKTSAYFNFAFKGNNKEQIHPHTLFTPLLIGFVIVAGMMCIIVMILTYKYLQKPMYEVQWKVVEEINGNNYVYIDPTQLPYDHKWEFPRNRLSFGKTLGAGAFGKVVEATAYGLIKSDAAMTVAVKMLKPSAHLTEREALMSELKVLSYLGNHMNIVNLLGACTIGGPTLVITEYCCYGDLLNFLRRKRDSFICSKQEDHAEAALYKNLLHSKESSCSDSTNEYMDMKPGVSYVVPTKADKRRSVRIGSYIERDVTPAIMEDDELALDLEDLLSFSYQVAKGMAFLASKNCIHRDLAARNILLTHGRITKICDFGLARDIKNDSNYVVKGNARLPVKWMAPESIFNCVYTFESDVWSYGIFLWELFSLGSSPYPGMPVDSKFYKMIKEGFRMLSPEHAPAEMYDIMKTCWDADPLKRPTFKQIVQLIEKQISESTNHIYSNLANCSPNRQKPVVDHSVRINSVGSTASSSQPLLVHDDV

SMILES: CNC(=O)c1cc(Oc2ccc3nc(N[C@@H]4CCCC[C@@H]4O)sc3c2)ccn1
EC50 (NFS-60): 140 nM | fraction unbound at 4 h, 10 µM [7]: 0.031

SMILES: CC1(C)CC=C(c2nc(C3CC(C)(C)OC(C)(C)C3)ccc2NC(=O)c2nc(C#N)c[nH]2)CC1 [EDICOTINIB]
Tmax [8]: 1 to 3.5 h

SMILES: CNC(=O)c1cc(Oc2ccc3nc(N[C@@H]4CCCC[C@H]4O)sc3c2)ccn1 [SOTULETINIB]
EC50 (NFS-60): 71 nM | fraction unbound at 4 h, 10 µM [7]: 0.037

Continued, in another order:

IC50 [1]: 16 nM | solubility kinetic [4]: 14 µM (≈ 5.35 µg/mL) | IC50 [5]: 28 nM
SMILES: FC(F)(F)c1ccc(CNc2ccc(Cc3c[nH]c4ncccc34)cn2)cc1
inhibition in vivo at 40 mg/kg (Mus musculus [2]): 77% | inhibition in vivo at 40 mg/kg (Mus musculus [3]): 85% | inhibition in vivo at 40 mg/kg (Mus musculus [6]): 75%

solubility kinetic [4]: 77 µM (≈ 31.8 µg/mL) | IC50 [5]: 62 nM
SMILES: COc1cnc2[nH]cc(Cc3ccc(NCc4ccc(C(F)(F)F)cc4)nc3)c2c1

concentration at 168 h [9]: 5500 ng/g
SMILES: FC(F)(F)c1ccc(CNc2ccc(Cc3c[nH]c4ncc(Cl)cc34)cn2)cn1 [PEXIDARTINIB]
